Experimental findings from patent US20080317700A1 (priority 2006, published 2008) are described below.

The subject of one data set is green algae CD 1 Red. The data set can be described thus: organism not typed. The data set is classed as cell-based. The settings on record: 120 h; CD1 Red, herbicide concentration 300 mM, 5 days; read-out: Average radii of the inhibition zones. On the procedure: After phototrophical propagation during the 5 days under cool fluorescence light (intensity 5000 lux), the average radii of inhibition zones were measured. Water soaked filter paper circles were used as controls. Experiments for each herbicide concentration were repeated 3 times.

The test system of data set [1] is cyanobacteria Synechococcus 7002. The data set can be described thus: Liquid culture growth inhibition (optical density), salt water cyanobacteria. The data set is classed as cell-based. The settings on record: Synechococcus 7002, residual salt control; untreated control 0.72. Here is the method: Strains of green algae, cyanobacteria and E. Coli were used as test organisms. The green algae CD 1 Red and cyanobacteria Synechocystos 6803 were obtained from the collection of Prof. George Bullerjahn. Salt water strain of cyanobacteria Synechococcus 7002 was obtained from the collection of Prof. Michael McKay. E Coli DH 5α was obtained from Invitrogen Inc.
Green algae and cyanobacteria were propagated photoautotrophically in 250 mL Erlenmeyer flasks containing 100 mL of liquid BG-11 culture medium (see Supporting Information). The cultures were kept on a rotating shaker (100 rpm) at 25° C. for 4 days and continuously illuminated with cool-white fluorescent light with a constant light intensity of 5000 lux. The grown culture medium was sterilized in an autoclave at 121° C. and 1.05 kg cm^−2 pressure for 20 min. For the cell experiments, 20 mL aliquots of the BG-11 medium containing the green algal ([cells]initial=5.9×10^7 mL^−1) or cyanobacteria cells ([cells]initial=1.7×10^9 mL^−1) were placed in sterile 50 mL Erlenmeyer flasks. CD 1 Red, Synechocystos 6803 and Synechococcus 7002 were then treated with an aliquot of a stock herbicide solution to bring the final herbicide concentration to 1 mM and incubated for 7 days on a rotator shaker (100 rpm) at 25° C. and continuous light intensity of 5000 lux. Cell counts were correlated with the absorbance and measured as a function of time using a Spectronic 20 Genesis spectrophotometer. As previously reported by Ma et al., 5 the optimal wavelength for monitoring culture growth is 680 nm. Experiments for each herbicide were repeated three times. Control and treated cultures were grown under the same conditions of temperature, photoperiod, and agitation. In each experiment, the inhibition of cell growth in treated cultures was monitored spectrophotometrically and compared to the growth in control samples.

The nature of another data set: Solubility (qualitative). The class given is physicochemical.

In the case of `C=CC(N)=O` [acrylamide], the zone of inhibition at 300000 µM in the data set with green algae CD 1 Red came out at 7.5 mm.
For the compound `[Cl-].[Na+]` [NaCl, sodium chloride], in data set [1], the “Optical Density at 680 nm after 7 days of media growth, NaCl control experiment” value is “(0.75 NaCl)”.
On to `C=C(C)C(=O)N(CC(=O)O)CP(=O)(O)O` [MA, N-Methacryloyl-N-(phosphonomethyl)glycine], for which, in the data set “Solubility (qualitative)”, the “Solubility in organic solvents” value is on record as “poorly soluble in most organic solvents” and the Solubility in water entry is given as “soluble in water”.
